Each block holds one molecule with its values, some of them ahead of it. Ends that are not written are not given here.
Tests used:
[1] = test system: BCL-2 overexpressing mitochondria; assay: Cytochrome c release from BCL-2 overexpressing FL5.12 mitochondria; format: biochemical; details: for cytochrome c release from mitochondria with overexpressed BCL-2, agent alone: 10 μM BIDBH3, 1 μM BIMBH3, 30 nM myrBID; for capacity to overcome BCL-2 protection: with subliminal myrBID (30 nM)
Procedure: (§1) Mouse liver mitochondria were isolated from age-matched wt or Bak −/− mice. Livers were diced, subjected to Dounce rotary Teflon pestle disruption, then homogenized using a Kinematica Polytron homognizer. Following suspension in isolation buffer (250 mM sucrose, 10 mM Tris-HCl pH 7.4, 0.1 mM EGTA), mitochondria were isolated by differential centrifugation steps, followed by two washes in isolation buffer. Mitochondria from FL5.12 cells were isolated by cell disruption followed by differential centrifugation and washing as above. Cell disruption was performed either by a Kinematika Polytron homogenizer or by a combination of Dounce homogenization followed by 6-10 expulsions through a 27 gauge needle.
(§2) Mitochondria at a protein concentration of 0.5 mg/ml were treated at room temperature in experimental buffer (125 mM KCl, 10 mM Tris-MOPS pH 7.4, 5 mM glutamate, 2.5 mM malate, 1 mM KPO4, 10 µM EGTA-Tris pH 7.4). Percent release was quantitated using a colorimetric ELISA (MCTC0, R&D Systems). In all experiments, treatments with DMSO were used as a control for solvent activity.

[2] = Circular dichroism, α-helical content; format: physicochemical; details: CD, 50 mM potassium phosphate pH 7, 20° C.
Procedure: Circular dichroism (CD) spectra were obtained on a Jasco J-710 spectropolarimeter at 20° C. using the following standard measurement parameters: wavelength, 190-260 nm; step resolution, 0.5 nm; speed, 20 nm/sec; accumulations, 10; response, 1 sec; band width, 1 nm; path length, 0.1 cm. Stock solutions of peptide were dissolved in deionized water and concentrations determined by amino acid analysis. Samples were then diluted in 50 mM potassium phosphate pH 7 to a calculated final concentration of 50 μM. The CD spectrum of each sample was measured in triplicate and a background spectrum of diluent alone was subtracted. For comparison, the subtracted CD spectra were normalized to 35 μM based on repeat peptide concentration determination by amino acid analysis of the diluted peptide solutions. The α-helical content of each peptide was calculated by dividing the mean residue ellipticity [q]222obs by the reported [q]222obs for a model helical decapeptide (Yang et al., 1986).

[3] = target: T1, GST-BCL-2 (Homo sapiens, UniProt P10415); assay: BH3 peptide displacement from GST-BCL-2 by fluorescence polarization; format: binding; details: for IC50: read-out: IC50 (nM), BID Displacement
T1 construct: a GST-BCL-2 fusion protein lacking the C-terminal transmembrane domain was utilized; made in house; host or cells: E. coli BL21 DE3
Source text: (§3) To determine Kd for peptide binding to BCL-2, a GST-BCL-2 fusion protein lacking the C-terminal transmembrane domain was utilized. Peptides were synthesized with a fluorescein amino-terminus using an AHA linker. […] An increase in fluorescence polarization measured on a Perkin-Elmer LS 50B luminescence spectrophotometer was quantitated to calculate binding. A non-linear fit to a sigmoidal dose-response curve utilized the program Origin 6.0 to determine Kd. […] Data were fitted to a sigmoidal curve as above, and IC50 determined.
(§4) GST-BCL-2δC21 fusion proteins were induced in BL21 DE3 by 0.1 mM IPTG. The bacterial pellets were resuspended in lysis buffer (1 mg/ml lysozyme/1% Triton X-100/0.1 mg/ml PMSF/2 μg/ml aprotinin/2 μg/ml leupeptine/1 μg/ml pepstatin A in PBS) and sonicated. After centrifugation at 20,000×g for 20 min, the supernatant was applied to glutathione-agarose beads (Sigma). The beads were washed with PBS and treated with 50 mM glutathione/50 mM TrisHCl, pH8.0 to elute protein. Eluate was dialyzed against binding buffer and concentrated using Amicon centrifugal concentrating devices.

[4] = test system: mitochondria; assay: Cytochrome c release from isolated mitochondria (ELISA); format: biochemical, mouse; details: for cytochrome c release by peptide or protein alone: BIDBH3 at 10 μM, other concentrations not stated
Procedure: as §1, §2

[5] = target: T2, BAK (Mus musculus, UniProt O08734); assay: BAK oligomerization, BMH cross-linking and immunoblot; format: biochemical; details: 100 μM peptide, cross-linker BMH
T2 construct: capable of inducing an allosteric change in mitochondrial-resident BAK or BAX; from tissue
T2 sequence (O08734 1-209): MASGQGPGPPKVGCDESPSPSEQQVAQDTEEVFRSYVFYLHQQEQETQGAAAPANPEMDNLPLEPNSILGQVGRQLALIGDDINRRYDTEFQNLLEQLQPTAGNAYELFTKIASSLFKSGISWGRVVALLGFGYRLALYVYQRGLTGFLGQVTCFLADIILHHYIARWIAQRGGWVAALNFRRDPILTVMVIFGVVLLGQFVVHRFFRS
Procedure: (§5) 1,6-Bismaleimidohexane was obtained from Pierce (#22330). A 10 mM stock solution in DMSO was added to treated mitochondrial suspensions at a 1:11 dilution. Cross-linking took place for 30 minutes at room temperature, followed by centrifugation to pellet mitochondria. Pellets were dissolved in NuPAGE loading buffer (Invitrogen).
(§6) Antibodies used for immunoblot analysis included anti-cytochrome c (75981A, Pharmingen), anti-BAK (Upstate Biotechnology), and anti-BAX (N-20, Santa Cruz). Antibody detection was accomplished using enhanced chemiluminescence (Western Lightning, Perkin-Elmer).

[6] = target: T3, BAX (Mus musculus, UniProt Q07813); assay: BAX oligomerization in mitochondria from FL5.12 cells, BMH cross-linking; format: biochemical; details: 100 μM peptide
T3 construct: mitochondria isolated from cultured FL5.12 cells, which contain both BAX and BAK; endogenous in cells; host or cells: mitochondria isolated from FL5.12 cells
Procedure: as §5, §6

[7] = target: T1, GST-BCL-2; assay: Fluorescence polarization binding of fluoresceinated BH3 peptides to GST-BCL-2; details: for Kd: 25 nM fluoresceinated peptide, GST-BCL-2 titration, 37° C., read-out: Kd (nM), BCL-2 Binding
Source text: as §3, §4

T1 sequence (P10415 1-218 limits assumed): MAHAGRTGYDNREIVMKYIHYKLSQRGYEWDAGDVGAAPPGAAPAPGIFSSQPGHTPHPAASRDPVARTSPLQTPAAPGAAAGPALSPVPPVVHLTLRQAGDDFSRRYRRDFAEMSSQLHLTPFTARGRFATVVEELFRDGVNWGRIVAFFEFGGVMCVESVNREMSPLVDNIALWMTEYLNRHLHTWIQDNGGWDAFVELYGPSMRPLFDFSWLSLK
T3 sequence (Q07813 whole entry): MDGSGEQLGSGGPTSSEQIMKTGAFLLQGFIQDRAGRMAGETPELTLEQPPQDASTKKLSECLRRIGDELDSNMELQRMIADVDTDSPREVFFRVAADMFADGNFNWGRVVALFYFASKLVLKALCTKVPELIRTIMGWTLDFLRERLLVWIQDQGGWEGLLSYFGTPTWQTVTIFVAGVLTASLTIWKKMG

Molecule: CC[C@H](C)[C@H](NC(=O)[C@H](CC(N)=O)NC(=O)[C@H](CCCNC(=N)N)NC(=O)[C@@H](NC(=O)[C@@H](NC(=O)[C@H](CC(=O)O)NC(=O)[C@@H](N)CCC(=O)O)[C@@H](C)CC)[C@@H](C)CC)C(=O)N[C@@H](C)C(=O)N[C@@H](CCCNC(=N)N)C(=O)N[C@@H](Cc1c[nH]cn1)C(=O)N[C@@H](CC(C)C)C(=O)N[C@@H](C)C(=O)N[C@@H](CCC(N)=O)C(=O)N[C@H](C(=O)NCC(=O)N[C@@H](CC(=O)O)C(=O)N[C@@H](CO)C(=O)N[C@@H](CCSC)C(=O)N[C@@H](CC(=O)O)C(=O)N[C@@H](CCCNC(=N)N)C(=O)O)C(C)C [BIDBH3]
cytochrome c release from mitochondria with overexpressed BCL-2, agent alone [1]: failing to release cytochrome c
% Helicity (222 nm) [2]: 19.5%
displacement of BADBH3 from BCL-2 [3]: does not effectively displace BADBH3 from BCL-2
concentration required for near total release of cytochrome c [4]: 10 µM
cytochrome c release, Bak +/+ vs. −/− mitochondria ([4]; 100 μM peptide, liver mitochondria): BAK is required for the release of cytochrome c
cytochrome c release by peptide or protein alone [4]: capable of initiating cytochrome c release
BAK oligomerization [5]: induces BAK oligomerization
oligomerization of BAX [6]: could also induce oligomerization of BAX

Molecule: VIPMAAVKQALREAGDEFEL [BCLXBH3]
IC50 [3]: > 30000 nM
Kd [7]: > 1000 nM

Molecule: CSCC[C@H](NC(=O)[C@H](CCCNC(=N)N)NC(=O)[C@H](CCCNC(=N)N)NC(=O)[C@H](CC(C)C)NC(=O)[C@H](CCC(=O)O)NC(=O)[C@H](CCCNC(=N)N)NC(=O)CNC(=O)[C@H](Cc1ccc(O)cc1)NC(=O)[C@H](CCCNC(=N)N)NC(=O)[C@H](CCC(N)=O)NC(=O)[C@H](C)NC(=O)[C@H](C)NC(=O)[C@H](Cc1c[nH]c2ccccc12)NC(=O)[C@H](CC(C)C)NC(=O)[C@@H](N)CC(N)=O)C(=O)N[C@@H](CO)C(=O)N[C@@H](CC(=O)O)C(=O)N[C@@H](CCC(=O)O)C(=O)N[C@@H](Cc1ccccc1)C(=O)N[C@H](C(=O)N[C@@H](CC(=O)O)C(=O)N[C@@H](CO)C(=O)N[C@@H](Cc1ccccc1)C(=O)N[C@@H](CCCCN)C(=O)N[C@@H](CCCCN)C(=O)O)C(C)C [BADBH3]
restoration of cytochrome c release to BIDBH3 and BIMBH3 ([1]; 100 μM BADBH3): to levels observed for wt mitochondria
restoration of sensitivity to myrBID ([1]; 200 μM BADBH3): markedly restores their sensitivity to even 1 nM myrBID
lowest concentration with measurable activity in inhibiting BCL-2 and enabling cytochrome c release by myrBID ([1]; FL5.12-BCL-2 mitochondria): 1 µM
capacity to overcome BCL-2 protection [1]: most prominently demonstrates the capacity to overcome BCL-2 protection
% Helicity (222 nm) [2]: 23.9%
displacement of BIDBH3 from BCL-2 [3]: can efficiently displace pre-bound BIDBH3 peptide from BCL-2
cytochrome c release by peptide or protein alone [4]: inactive in this assay
cytochrome c release by peptide alone ([4]; even at 100 μM): cannot activate BAK or release cytochrome c
affinity for BCL-2 relative to BIDBH3 peptide [7]: approximately 5 fold
BAK oligomerization [5]: unable to induce BAK oligomerization
oligomerization of BAX [6]: not

B1: myrBID: recombinant p7/myrp15, myristoylated BID complex (protein, UniProt P55957 1-195, looked up)
BH3-interacting domain death …: MDCEVNNGSSLRDECITNLLVFGFLQSCSDNSFRRELDALGHELPVLAPQWEGYDELQTDGNRSSHSRLGRIEADSESQEDIIRNIARHLAQVGDSMDRSIPPGLVNGLALQLRNTSRSEEDRNRDLATALEQLLQAYPRDMEKEKTMLVLALLLAKKVASHTPSLLRDVFHTTVNFINQNLRTYVRSLARNGMD
modifications: myristoylated; p7/p15 cleaved complex
cytochrome c release from mitochondria with overexpressed BCL-2, agent alone [1]: failing to release cytochrome c
concentration required for near total release of cytochrome c [4]: 0.01 µM
cytochrome c release by peptide or protein alone [4]: capable of initiating cytochrome c release

Now from value to molecule, other results behind:

% Helicity (222 nm) [2]: 5.1%
binding to BCL-2 [7]: did not bind detectably
Molecule: CC[C@H](C)[C@H](NC(=O)[C@H](CCCCN)NC(=O)[C@H](CCCNC(=N)N)NC(=O)[C@H](CC(C)C)NC(=O)[C@H](CCC(N)=O)NC(=O)[C@H](C)NC(=O)[C@H](C)NC(=O)[C@H](Cc1ccccc1)NC(=O)[C@H](CCC(=O)O)NC(=O)[C@@H]1CCCN1C(=O)[C@@H]1CCCN1C(=O)[C@H](CC(C)C)NC(=O)[C@H](CCC(=O)O)NC(=O)[C@H](C)N)C(=O)NCC(=O)N[C@@H](CC(=O)O)C(=O)N[C@@H](CCCCN)C(=O)N[C@H](C(=O)N[C@@H](Cc1ccc(O)cc1)C(=O)N[C@@H](CS)C(=O)O)C(C)C [NOXAABH3]
displacement of BIDBH3 from BCL-2 [3]: did not bind detectably to BCL-2 or displace BIDBH3 from BCL-2

% Helicity (222 nm) [2]: 8.5%
IC50 [3]: 4920 nM
Kd [7]: 485 nM
Molecule: CC[C@H](C)[C@H](NC(=O)[C@H](CS)NC(=O)[C@H](C)NC(=O)[C@H](CC(C)C)NC(=O)[C@H](CCCNC(=N)N)NC(=O)[C@H](CC(C)C)NC(=O)[C@H](C)NC(=O)[C@H](CC(C)C)NC(=O)[C@H](C)NC(=O)[C@H](CC(=O)O)NC(=O)[C@H](CO)NC(=O)CNC(=O)[C@H](CCC(=O)O)NC(=O)[C@@H](N)CCSC)C(=O)NCC(=O)N[C@@H](CC(=O)O)C(=O)N[C@@H](CCC(=O)O)C(=O)N[C@@H](CCSC)C(=O)N[C@@H](CC(=O)O)C(=O)N[C@H](C(=O)O)C(C)C [BIKBH3]
restoration of cytochrome c release by myrBID ([1]; 100 μM BIKBH3): restore near-total cytochrome c release
capacity to overcome BCL-2 protection [1]: significant, but lesser, potency
displacement of BIDBH3 from BCL-2 [3]: demonstrate the ability to displace BIDBH3

% Helicity (222 nm) [2]: 11.6%
binding to BCL-2 [7]: did not bind detectably
Molecule: CC[C@H](C)[C@H](NC(=O)[C@H](CCCNC(=N)N)NC(=O)[C@H](CCCNC(=N)N)NC(=O)[C@H](CC(C)C)NC(=O)[C@H](CCC(N)=O)NC(=O)[C@H](C)NC(=O)[C@H](CS)NC(=O)[C@H](CCC(=O)O)NC(=O)[C@H](CC(=O)O)NC(=O)[C@H](CCCCN)NC(=O)[C@H](CC(C)C)NC(=O)[C@H](CC(=O)O)NC(=O)[C@H](C)NC(=O)[C@@H]1CCCN1)C(=O)NCC(=O)N[C@@H](CC(=O)O)C(=O)N[C@@H](CCCCN)C(=O)N[C@H](C(=O)N[C@@H](CC(N)=O)C(=O)N[C@@H](CC(C)C)C(=O)O)C(C)C [NOXABBH3]
displacement of BIDBH3 from BCL-2 [3]: did not bind detectably to BCL-2 or displace BIDBH3 from BCL-2
